Data taken from patent US20090018134A1, “Compounds - 945” (AstraZeneca AB, priority 2007, published 2009).

Assays:
Format in all cases: biochemical
p110α Type Ia human PI3K = target: T1, p110α Type Ia human PI3K (Homo sapiens, UniProt P42336); assay: In Vitro PI3K Enzyme Assay (AlphaScreen), Test (b)(i), p110α; details: read-out: IC50 versus p110α Type Ia human PI3K
T1 construct: full length DNA of each of the p110α, p110β and p110δ Type Ia human PI3K p110 isoforms; 6-His; made in house
Source text: (b)(i) In Vitro PI3K Enzyme Assay
The assay used AlphaScreen technology (Gray et al., Analytical Biochemistry, 2003, 313: 234-245) to determine the ability of test compounds to inhibit phosphorylation by recombinant Type I PI3K enzymes of the lipid PI(4,5)P2.
DNA fragments encoding human PI3K catalytic and regulatory subunits were isolated from cDNA libraries using standard molecular biology and PCR cloning techniques. The selected DNA fragments were used to generate baculovirus expression vectors. In particular, full length DNA of each of the p110α, p110β and p110δ Type Ia human PI3K p110 isoforms (EMBL Accession Nos. HSU79143, S67334, Y10055 for p110α, p110β and p110δ respectively) were sub-cloned into a pDEST10 vector (Invitrogen Limited, Fountain Drive, Paisley, UK). The vector is a Gateway-adapted version of Fastbac1 containing a 6-His epitope tag. […]
Biotinylated-DiC8-PI(3,4,5)P3 (50 nM; Cell Signals Inc., Catalogue No. 107), recombinant purified GST-Grp1 PH protein (2.5 nM) and AlphaScreen Anti-GST donor and acceptor beads (100 ng; Packard Bioscience Limited, Station Road, Pangbourne, Berkshire, UK, Catalogue No. 6760603M) were added and the assay plates were left for about 5 to 20 hours at room temperature in the dark. The resultant signals arising from laser light excitation at 680 nm were read using a Packard AlphaQuest instrument. […]

mTOR [1] = target: T2, mTOR (Homo sapiens, UniProt P42345); assay: In Vitro mTOR Kinase Assay (Echo), Test (a)(ii)
T2 construct: FLAG; made in house
Procedure, shortened: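 FLAG-tagged truncated mTOR (residues 1362-2549), expressed in HEK293 and purified via the FLAG tag, phosphorylated a biotinylated peptide over 2 hours at room temperature. EDTA stopped the reaction. Phospho-T389 was detected overnight by AlphaScreen using the p70 S6K T389 antibody with Protein A/streptavidin beads; IC50 reported.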

mTOR [2] = target: T2, mTOR; assay: mTOR Kinase Assay (Echo)
[3] = table of enzyme assay Test (a)(ii), read-out: Test (a)(ii) IC50

T2 sequence (P42345 1362-2549): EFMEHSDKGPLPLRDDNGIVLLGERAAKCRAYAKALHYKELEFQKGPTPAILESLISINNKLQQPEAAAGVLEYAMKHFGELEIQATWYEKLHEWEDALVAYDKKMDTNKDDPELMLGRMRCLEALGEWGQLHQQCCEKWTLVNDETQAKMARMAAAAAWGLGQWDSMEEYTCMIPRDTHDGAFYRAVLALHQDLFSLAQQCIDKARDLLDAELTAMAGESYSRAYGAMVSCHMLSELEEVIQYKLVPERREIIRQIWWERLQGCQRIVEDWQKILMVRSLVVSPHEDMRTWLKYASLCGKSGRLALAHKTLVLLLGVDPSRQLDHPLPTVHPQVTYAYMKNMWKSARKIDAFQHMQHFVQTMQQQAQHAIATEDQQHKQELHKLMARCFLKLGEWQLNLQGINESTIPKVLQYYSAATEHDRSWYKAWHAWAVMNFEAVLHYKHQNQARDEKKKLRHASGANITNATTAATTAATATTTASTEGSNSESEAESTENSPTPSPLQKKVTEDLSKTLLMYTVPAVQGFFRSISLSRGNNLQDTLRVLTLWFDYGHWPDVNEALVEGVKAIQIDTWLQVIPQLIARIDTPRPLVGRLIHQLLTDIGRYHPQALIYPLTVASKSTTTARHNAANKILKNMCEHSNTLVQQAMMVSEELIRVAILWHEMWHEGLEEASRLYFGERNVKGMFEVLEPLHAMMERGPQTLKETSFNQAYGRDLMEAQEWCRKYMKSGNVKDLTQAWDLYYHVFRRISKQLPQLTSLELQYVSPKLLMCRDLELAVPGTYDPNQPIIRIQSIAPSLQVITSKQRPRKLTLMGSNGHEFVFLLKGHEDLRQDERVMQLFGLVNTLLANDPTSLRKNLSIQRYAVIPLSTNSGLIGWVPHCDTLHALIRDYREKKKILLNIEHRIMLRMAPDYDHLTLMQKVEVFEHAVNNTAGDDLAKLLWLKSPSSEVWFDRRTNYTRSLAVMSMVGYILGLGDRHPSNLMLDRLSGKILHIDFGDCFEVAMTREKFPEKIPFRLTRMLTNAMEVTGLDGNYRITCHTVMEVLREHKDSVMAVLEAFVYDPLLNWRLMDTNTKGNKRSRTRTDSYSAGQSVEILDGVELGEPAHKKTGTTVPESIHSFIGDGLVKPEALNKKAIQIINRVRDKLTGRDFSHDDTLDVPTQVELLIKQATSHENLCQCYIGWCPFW
T1 sequence (P42336 whole entry, canonical isoform): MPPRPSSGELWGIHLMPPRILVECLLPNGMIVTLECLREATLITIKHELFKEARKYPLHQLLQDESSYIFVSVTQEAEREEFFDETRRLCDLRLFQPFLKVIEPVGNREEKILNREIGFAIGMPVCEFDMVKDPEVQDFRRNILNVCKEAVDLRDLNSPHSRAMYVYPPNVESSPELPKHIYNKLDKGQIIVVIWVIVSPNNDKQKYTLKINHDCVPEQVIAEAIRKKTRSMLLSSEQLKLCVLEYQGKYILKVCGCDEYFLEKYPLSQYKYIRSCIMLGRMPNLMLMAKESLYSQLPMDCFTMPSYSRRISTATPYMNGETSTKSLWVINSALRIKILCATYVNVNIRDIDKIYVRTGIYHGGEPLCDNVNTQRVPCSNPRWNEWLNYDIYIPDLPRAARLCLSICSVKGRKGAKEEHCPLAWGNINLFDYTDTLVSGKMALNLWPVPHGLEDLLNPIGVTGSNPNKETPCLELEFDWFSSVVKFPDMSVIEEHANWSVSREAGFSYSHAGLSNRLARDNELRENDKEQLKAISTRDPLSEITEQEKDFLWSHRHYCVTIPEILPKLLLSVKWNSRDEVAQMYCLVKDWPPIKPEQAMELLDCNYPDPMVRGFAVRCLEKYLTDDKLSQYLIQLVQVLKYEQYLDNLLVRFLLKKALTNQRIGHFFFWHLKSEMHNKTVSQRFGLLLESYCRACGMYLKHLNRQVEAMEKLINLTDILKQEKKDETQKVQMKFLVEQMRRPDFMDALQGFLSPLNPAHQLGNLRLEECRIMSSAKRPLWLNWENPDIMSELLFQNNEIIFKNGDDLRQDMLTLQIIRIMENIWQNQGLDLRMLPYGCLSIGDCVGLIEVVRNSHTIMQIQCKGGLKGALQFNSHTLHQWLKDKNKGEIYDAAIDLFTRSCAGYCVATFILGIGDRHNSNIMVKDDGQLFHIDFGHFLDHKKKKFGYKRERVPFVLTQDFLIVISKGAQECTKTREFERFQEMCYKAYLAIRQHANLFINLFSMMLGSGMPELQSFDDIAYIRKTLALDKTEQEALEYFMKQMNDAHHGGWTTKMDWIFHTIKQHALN
T1 sequence (P27986 whole entry partner, canonical isoform): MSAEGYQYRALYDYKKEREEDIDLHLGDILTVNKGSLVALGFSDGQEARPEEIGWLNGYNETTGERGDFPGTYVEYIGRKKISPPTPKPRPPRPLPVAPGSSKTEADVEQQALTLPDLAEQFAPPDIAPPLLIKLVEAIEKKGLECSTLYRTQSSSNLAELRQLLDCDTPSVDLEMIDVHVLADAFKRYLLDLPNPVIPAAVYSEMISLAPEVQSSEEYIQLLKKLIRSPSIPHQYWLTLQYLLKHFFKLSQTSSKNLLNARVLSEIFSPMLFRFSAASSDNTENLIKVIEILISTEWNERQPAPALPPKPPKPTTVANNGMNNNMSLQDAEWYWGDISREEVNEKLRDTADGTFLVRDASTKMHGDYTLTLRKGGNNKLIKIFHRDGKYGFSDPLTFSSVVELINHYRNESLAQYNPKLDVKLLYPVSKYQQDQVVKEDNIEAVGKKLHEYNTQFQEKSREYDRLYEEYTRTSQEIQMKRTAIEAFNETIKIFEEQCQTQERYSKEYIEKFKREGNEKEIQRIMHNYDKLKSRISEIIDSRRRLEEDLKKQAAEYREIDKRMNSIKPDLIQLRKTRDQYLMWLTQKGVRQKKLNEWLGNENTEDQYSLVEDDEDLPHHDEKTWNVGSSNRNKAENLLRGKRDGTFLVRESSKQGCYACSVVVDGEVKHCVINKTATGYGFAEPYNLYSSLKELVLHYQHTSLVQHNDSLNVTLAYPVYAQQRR

For `C[C@H]1COCCN1c1cc(C2(S(C)(=O)=O)CC2)nc(-c2ccc(NC(=O)Nc3cnn(C)c3)cc2)n1` [Example 2b, 1-[4-[4-[(3S)-3-methylmorpholin-4-yl]-6-(1-methylsulfonylcyclopropyl)pyrimidin-2-yl]phenyl]-3-(1-methylpyrazol-4-yl)urea], the IC50 (p110α Type Ia human PI3K) was 1040 nM and the IC50 (mTOR [1]; read-out: mTOR Kinase Assay (Echo)) was 0.169 nM.

Work on `Cc1csc(S(=O)(=O)C2(c3cc(N4CCOC[C@@H]4C)nc(-c4ccc(NC(=O)NC(C)C)cc4)n3)CC2)n1` [Example 25d, 1-[4-[4-[(3S)-3-methylmorpholin-4-yl]-6-[1-[(4-methyl-1,3-thiazol-2-yl)sulfonyl]cyclopropyl]pyrimidin-2-yl]phenyl]-3-propan-2-ylurea] yielded an IC50 (mTOR [2]) of 1.57 nM and an IC50 (mTOR [1]; [3]) of 1.52 nM.

`C[C@H]1COCCN1c1cc(C2(S(C)(=O)=O)CC2)nc(-c2ccc(NC(=O)Nc3ncco3)cc2)n1` [Example 36ba, 1-[4-[4-[(3S)-3-methylmorpholin-4-yl]-6-(1-methylsulfonylcyclopropyl)pyri-midin-2-yl]phenyl]-3-(1,3-oxazol-2-yl)urea] gave an IC50 (mTOR [2]) of 3.12 nM and an IC50 (mTOR [1]; [3]) of 1.67 nM.

In the case of `O=C(Nc1ccc(-c2nc(N3CCOCC3)cc(C3(S(=O)(=O)C4CC4)CC3)n2)cc1)NC1CCC1` [Example 13c, 3-cyclobutyl-1-[4-[4-(1-cyclopropylsulfonylcyclopropyl)-6-morpholin-4-ylpyrimidin-2-yl]phenyl]urea], the IC50 (mTOR [2]) is reported as 2.4 nM and the IC50 (mTOR [1]; [3]) is reported as 1.73 nM.

`C[C@H]1COCCN1c1cc(C2(S(=O)(=O)c3ccccn3)CC2)nc(-c2ccc(NC(=O)NC3CC3)cc2)n1` [Example 28, 3-Cyclopropyl-1-[4-[4-[(3S)-3-methylmorpholin-4-yl]-6-(1-pyridin-2-ylsulfonylcyclopropyl)pyrimidin-2-yl]phenyl]urea] gave an IC50 (mTOR [2]) of 0.816 nM and an IC50 (mTOR [1]; [3]) of 1.87 nM.

`C[C@H]1COCCN1c1cc(C2(S(=O)(=O)c3ccccc3)CC2)nc(-c2ccc(NC(=O)NC3CC3)cc2)n1` [Example 36bc, 1-[4-[4-[1-(benzenesulfonyl)cyclopropyl]-6-[(3S)-3-methylmorpholin-4-yl]pyrimidin-2-yl]phenyl]-3-cyclopropylurea] gave an IC50 (mTOR [2]) of 2.05 nM and an IC50 (mTOR [1]; [3]) of 2.85 nM.

`C[C@H]1COCCN1c1cc(C2(S(=O)(=O)c3ccccc3)CC2)nc(-c2ccc(NC(=S)NCc3ncc[nH]3)cc2)n1` [Example 37ac, 1-[4-[4-[1-(benzenesulfonyl)cyclopropyl]-6-[(3S)-3-methylmorpholin-4-yl]pyrimidin-2-yl]phenyl]-3-(1H-imidazol-2-ylmethyl)thiourea] was tested, and the IC50 (mTOR [2]) was 29.8 nM and the IC50 (mTOR [1]; [3]) was 43.8 nM.

`C[C@H]1COCCN1c1cc(C2(S(C)(=O)=O)CC2)nc(-c2ccc(NC(=O)Nc3cnn(C)c3)c(F)c2)n1` [Example 52d, 1-[2-fluoro-4-[4-[(3S)-3-methylmorpholin-4-yl]-6-(1-methylsulfonylcyclopropyl)pyrimidin-2-yl]phenyl]-3-(1-methylpyrazol-4-yl)urea] showed an IC50 (mTOR [2]) of 10.7 nM and an IC50 (mTOR [1]; [3]) of 5.88 nM.

In the case of `C[C@H]1COCCN1c1cc(C2(S(=O)(=O)c3ccccc3)CC2)nc(-c2ccc(NC(=S)NCCC#N)cc2)n1` [Example 37y, 1-[4-[4-[1-(benzenesulfonyl)cyclopropyl]-6-[(3S)-3-methylmorpholin-4-yl]pyrimidin-2-yl]phenyl]-3-(2-cyanoethyl)thiourea], the IC50 (mTOR [2]) is reported as 5.53 nM and the IC50 (mTOR [1]; [3]) is reported as 6.86 nM.

In the case of `Cc1csc(S(=O)(=O)C2(c3cc(N4CCOC[C@@H]4C)nc(-c4ccc(NC(=O)NCCO)cc4)n3)CC2)n1` [Example 25g, 3-(2-hydroxyethyl)-1-[4-[4-[(3S)-3-methylmorpholin-4-yl]-6-[1-[(4-methyl-1,3-thiazol-2-yl)sulfonyl]cyclopropyl]pyrimidin-2-yl]phenyl]urea], the IC50 (mTOR [2]) is reported as 1.19 nM and the IC50 (mTOR [1]; [3]) is reported as 1.43 nM.

For `CNC(=O)Nc1ccc(-c2nc(N3CCOC[C@@H]3C)cc(C3(S(=O)(=O)c4ccc(F)cn4)CC3)n2)cc1` [Example 48, 1-[4-[4-[1-(5-Fluoropyridin-2-yl)sulfonylcyclopropyl]-6-[(3S)-3-methylmorpholin-4-yl]pyrimidin-2-yl]phenyl]-3-methylurea], the IC50 (mTOR [2]) was 2.52 nM and the IC50 (mTOR [1]; [3]) was 0.72 nM.

In the case of `C[C@H]1COCCN1c1cc(C2(S(=O)(=O)c3ccccc3)CC2)nc(-c2ccc(NC(=O)NCCO)cc2)n1` [Example 36bh, 1-[4-[4-[1-(benzenesulfonyl)cyclopropyl]-6-[(3S)-3-methylmorpholin-4-yl]pyrimidin-2-yl]phenyl]-3-(2-hydroxyethyl)urea], the IC50 (mTOR [2]) is reported as 1.21 nM and the IC50 (mTOR [1]; [3]) is reported as 1.37 nM.

With `C[C@H]1COCCN1c1cc(C2(S(=O)(=O)CCCO)CC2)nc(-c2ccc(NC(=S)NC3CC3)cc2)n1` [Example 37h, 3-cyclopropyl-1-[4-[4-[1-(3-hydroxypropylsulfonyl)cyclopro-pyl]-6-[(3S)-3-methylmorpholin-4-yl]pyrimidin-2-yl]phenyl]thiourea] the IC50 (mTOR [2]) was 13.2 nM and the IC50 (mTOR [1]; [3]) was 19.8 nM.
